The target of data set [1] is T1, NHE-1 (Oryctolagus cuniculus, UniProt P23791).
T1 construct: endogenous in cells; host or cells: rabbit platelets in platelet-rich plasma (male rabbits)
Kind of data set: NHE-1 inhibition assay on rabbit platelets (platelet shape change after acidification with sodium propionate, laser aggregometer). The format is cell-based. As to the method: Evaluation of NHE-1 inhibition was carried out on rabbit platelets by the known method[39],[40]. The experiments were carried out on 15 male rabbits weighing 3.0-4.0 kg. Platelet-rich plasma (PRP) was obtained by centrifuging blood with 3.8% sodium citrate (1:10) at 1000 rpm for 12 min (Multi centrifuge CM 6M, Latvia). Platelet shapeshifting due to acidification was followed with a laser aggregometer BIOLA-220 LA (Russia). Test compounds (10 μl, 10 nM final concentration) were added to 200 μl of PRP 5 min in a cuvette before the addition of sodium propionate solution, incubated with constant stirring using a magnetic stirrer (800 rpm, 37 °C). To control samples for NHE-1 activation, a buffer solution containing sodium propionate was added to 200 μL of PRP (600 μL, 135 mM sodium propionate, 20 mM HEPES, 1 mM CaCI2, 1 mM MgCI2, 10 mM glucose; pH 6.7). The change in light transmission at pH 7.4, 37 °C was monitored in a Krebs solution (600 μL, 120 mM NaCl, 4.8 mM KCl, 1.2 mM KH2PO4, 2.5 mM MgSO4, 25 mM NaHCO3, 2.6 mM CaCl2, 5.4 mM glucose; pH 7.4). Test compounds were added to a final concentration of 10 nM to the cuvette into 200 μl of PRP 5 min before adding the sodium propionate solution, incubated with constant stirring using a magnetic stirrer (800 rpm, 37 °C). NHE-1 inhibitors zoniporide, rimeporide, amiloride were used as reference drugs. Assays were run in 6 independent series.

Data set [2] concerns primary peritoneal macrophages of C57BL/6J mice. The data set is described as follows: Nitric oxide synthesis (nitrite, Griess reagent) in LPS-stimulated peritoneal macrophages. As to conditions: 100 μM. The format is cell-based. How it is done: (§1) Peritoneal macrophages (PM) were isolated from the peritoneal exudate of 30 male C57bl/6j mice. To accumulate PM, 1 ml of 3% peptone solution was injected intraperitoneally. After 3 days the mice were euthanized by cervical dislocation. Cells of peritoneal exudate were obtained by aseptically washing the abdominal cavity with 5 ml of sterile Hanks’s solution (+ 4-6 °C) without calcium and magnesium ions. The total number and viability of cells were assessed in a Goryaev counting chamber (Russia) with a 0.4% trypan blue staining (Sigma-Aldrich, USA). The cell concentration was adjusted to 1.0×10^6 cells/ml in DMEM (Gibco) supplemented with 2 mM L-glutamine (Gibco), 10% heat-inactivated fetal bovine serum (BioClot, Germany), 100 U/ml penicillin and […] streptomycin (Gibco) and plated 200 μl/well in 96-well transparent plates (SPL Life Sciences Co., Ltd., Korea). It was left for 2 h at 37°C in a humidified atmosphere with 5% CO2, after which the wells were washed to remove non-adherent cells. After 24 hours of incubation, 20 μl of the supernatant was removed and 20 μl of solutions of test compounds were added 30 min before E. coli O127:B8 LPS (100 ng/ml final concentration). Experiments were run in 3 independent replicates.
The accumulation of nitrite anion (a stable end product of NO decomposition produced by iNOS) in supernatants was determined using a standard Griess reagent. Briefly, 50 μl of supernatants collected 22 hours after incubation of PM with test and control compounds were mixed with 50 μl of 1% sulfonamide in 2.5% H3PO4 and 50 μl of 0.1% N-(1-naphthyl) ethylenediamine in 2,5% H3PO4. After incubation at 23 °C for 10 min in an orbital shaker, the optical density was determined at a wavelength of 550 nm with a microplate reader Infinite M200 PRO (Tecan, Austria).

In a further data set the test system is IL-6 secretion. Kind of data set: Interleukin-6 secretion (ELISA) from LPS-stimulated peritoneal macrophages. The format is cell-based, mice. Particulars: male, C57BL/6J, mouse, primary peritoneal macrophages stimulated with LPS; CC50 versus IC50 of IL-6 secretion; read-out: selectivity of IL-6 inhibition over cytotoxicity. As to the method:
as §1
(§2) Cell supernatant was collected and centrifuged at 1000 g for 20 min in a 2-16PK Sigma centrifuge (Germany). The concentration of IL-6 was determined by ELISA using a commercial kit (Cloud-clone ELISA kit) with a microplate reader Infinite M200 PRO (Tecan, Austria).

The subject of data set [3] is primary peritoneal macrophages of C57BL/6J mice. The description is as above. The class given is cell-based. How it is done: as §1, §2
The test system of a further data set is intraocular pressure. Kind of data set: Intraocular pressure studies in outbred rats (TonoVet). The format is in vivo. How it is done: The experiments were carried out on 75 adult outbred rats of both sexes, which were kept in standard cages at a temperature of 25 °C and a standard light regime. Animals were randomly assigned to the control and experimental groups (n = 5). Before the start of the experiment, the rats had free access to food and water. Intraocular pressure (IOP) was measured with a TonoVet device (Finland)[44] which measures IOP with a short touch of a small disposable tip in the center of the cornea, no corneal anesthesia is required. The study was carried out according to the published method. One drop (50 μl) of a test 0.4% solution of the compound was instilled into the right eye, and deionized water was added to the left eye. IOP was measured in both eyes. The left eye, in turn, serves to assess the possible systemic exposure of the test compounds. […] IOP-lowering activity was assessed as the maximum decrease in IOP from the initial values. At 9:00 AM, baseline IOP was measured in animals of all groups. Experiments were run in 5 independent replicates.

A short description of data set [4]: Solubility under the conditions of the platelet aggregation assay. The format is physicochemical. As to conditions: antiplatelet assay. How it is done: Test compounds were dissolved in 99% DMSO (stock concentration 40 mM) and stored at –25 °C. If sediment or opalescence was detected, 5% Tween 20 (Merck) was added. Serial dilutions were prepared ex tempore in a media suitable for the particular study. Final concentration in samples: DMSO <0.25%, Tween 20 <0.025% (were added to control samples in equal concentrations).
Functional activity of platelets was determined on a two-channel laser analyzer of platelet aggregation "BIOLA-220 LA" (Russia) as described previously. The experiments were carried out on 6 male rabbits weighing 3.5–4 kg. To prepare platelet-rich plasma (PRP) venous blood was taken from the ear marginal vein of a rabbit, stabilized with a 3.8% sodium citrate solution in a ratio of 9:1 and centrifuged for 10 min at 1500 rpm. PRP (300 μL) and a solution of the test compound at a concentration of 100 μM were sequentially introduced into the cell of the aggregometer. The samples were incubated in thermostated cells of the aggregometer at 37 °C for 5 min. To induce aggregation adenosine-5-diphosphoric acid (ADP, Sigma, USA) at a final concentration of 5 μM, was added to the cuvette. Acetylsalicylic acid (Shandong Xinhua Pharmaceutical Co., Ltd., China) was used as a reference drug. Experiments were run in 5 independent replicates.

The target of data set [5] is T1, NHE-1. The data set is described as follows: NHE-1 inhibition assay on rabbit platelets (platelet shape change after acidification with sodium propionate, laser aggregometer). The format is cell-based. The source holds these as a separate data set.

T1 sequence (P23791 whole entry): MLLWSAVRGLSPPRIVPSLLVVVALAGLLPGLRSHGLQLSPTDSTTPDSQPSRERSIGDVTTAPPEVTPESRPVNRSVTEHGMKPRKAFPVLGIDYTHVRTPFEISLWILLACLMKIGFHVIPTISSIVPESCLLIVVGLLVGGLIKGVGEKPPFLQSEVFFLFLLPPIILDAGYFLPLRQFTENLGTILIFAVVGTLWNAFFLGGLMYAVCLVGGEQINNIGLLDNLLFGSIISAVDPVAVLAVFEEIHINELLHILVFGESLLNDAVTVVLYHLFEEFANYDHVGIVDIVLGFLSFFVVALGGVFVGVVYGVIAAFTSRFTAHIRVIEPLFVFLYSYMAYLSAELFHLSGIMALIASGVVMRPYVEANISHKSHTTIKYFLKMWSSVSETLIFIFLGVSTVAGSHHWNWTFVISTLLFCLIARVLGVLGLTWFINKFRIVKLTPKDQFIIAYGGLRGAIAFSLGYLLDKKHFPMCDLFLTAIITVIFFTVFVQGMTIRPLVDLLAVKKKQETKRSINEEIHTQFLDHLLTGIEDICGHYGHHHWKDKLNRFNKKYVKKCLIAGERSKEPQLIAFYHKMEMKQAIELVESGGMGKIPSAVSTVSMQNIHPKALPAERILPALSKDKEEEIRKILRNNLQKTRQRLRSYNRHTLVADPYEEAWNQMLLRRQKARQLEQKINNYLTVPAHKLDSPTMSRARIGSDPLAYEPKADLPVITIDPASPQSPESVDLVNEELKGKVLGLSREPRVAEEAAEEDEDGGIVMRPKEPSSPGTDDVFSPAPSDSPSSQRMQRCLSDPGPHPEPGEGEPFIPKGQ

Consider `Cn1c(=O)n(Cc2nnc(N)[nH]2)c(=O)c2ccccc21` [Compound 3e, 3-[(5-Amino-4H-1,2,4-triazol-3-yl)methyl]-1-methylquinazoline-2,4(1H,3H)-dione], for which the inhibition at 0.01 µM on NHE-1 [1] (10 nM, rabbit platelet-rich plasma, decimal commas, read-out: NHE-1 inhibition at 10 nM, m ± SD, n = 6 (%)) was 57.8%. Moreover, the “NHE-1 inhibitory activity (in words)” value at NHE-1 [1] (compared with reference drugs) is “more potent and comparable to zoniporide”. For the same compound, in data set [2], the “inhibition of the synthesis of nitric oxide” value is given as “statistically significantly inhibit”. In addition, in the data set on IL-6 secretion, the selectivity ratio lay in the range of 4 to 6. For the same compound, the “secretion of interleukin 6” value in data set [3] (LPS-stimulated macrophages, screening (Fig. 4)) is recorded as “suppressed”. For the same compound, the IC50 in data set [3] (Mus musculus, Peritoneal macrophage, LPS-stimulated murine macrophages, read-out: IC50 of IL-6 synthesis/secretion) was found to be 32.1 µM; at NHE-1 [5], 0.0058 µM. Besides, the IOP-lowering effect size entry in the data set on intraocular pressure (compared with zoniporide and timolol) is “negligible”. In addition, in the data set with intraocular pressure (one drop (50 μl) of 0.4% solution instilled), the IOP-lowering activity entry is given as “statistically significant activity”. For the same compound, the “solubility under assay conditions” value in data set [4] is recorded as “insoluble under assay conditions”.
